Source: PubChem BioAssay (NCI)
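Abbreviation: GI50, concentration required for 50% inhibition of growth. Definition used: TGI = concentration required for complete inhibition of growth.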

Legend:
Experiment in all cases: NCI anticancer screen, dose series, 384-well format
SNB-75 CNS = test system: SNB-75 CNS
HCC-2998 colon = test system: HCC-2998 colon
MDA-MB-435 melanoma = test system: MDA-MB-435 melanoma
NCI-H23 lung = test system: NCI-H23 lung
NCI-H460 NSCLC = test system: NCI-H460 NSCLC
OVCAR-4 ovarian = test system: OVCAR-4 ovarian
OVCAR-3 ovarian = test system: OVCAR-3 ovarian
EKVX NSCLC = test system: EKVX NSCLC
COLO 205 colon = test system: COLO 205 colon
SR leukemia = test system: SR leukemia
ACHN renal = test system: ACHN renal
PC-3 prostate = test system: PC-3 prostate
HL-60(TB) leukemia = test system: HL-60(TB) leukemia

**Q.** How did the GI50 (SNB-75 CNS) turn out when CC(C)C[C@H](NC(=O)[C@H](Cc1ccccc1)NC(=O)c1cnccn1)B(O)O was run?
**A.** < 10 nM

**Q.** And the TGI (SNB-75 CNS)?
**A.** < 10 nM

**Q.** What about the GI50 (HCC-2998 colon) of the same compound?
**A.** < 11.8 nM

**Q.** And the TGI (HCC-2998 colon)?
**A.** < 16.5 nM

**Q.** What about the GI50 (MDA-MB-435 melanoma) of the same compound?
**A.** < 10 nM

**Q.** And the TGI (MDA-MB-435 melanoma)?
**A.** < 10 nM

**Q.** What about the GI50 (NCI-H23 lung) of the same compound?
**A.** < 10 nM

**Q.** What about the TGI (NCI-H23 lung) of the same compound?
**A.** < 10 nM

**Q.** And the GI50 (NCI-H460 NSCLC)?
**A.** < 13 nM

**Q.** What about the TGI (NCI-H460 NSCLC) of the same compound?
**A.** 19.9 nM

**Q.** And the GI50 (OVCAR-4 ovarian)?
**A.** < 10 nM

**Q.** What about the TGI (OVCAR-4 ovarian) of the same compound?
**A.** < 10 nM

**Q.** And the GI50 (OVCAR-3 ovarian)?
**A.** < 10 nM

**Q.** What about the TGI (OVCAR-3 ovarian) of the same compound?
**A.** < 10 nM

**Q.** And the GI50 (EKVX NSCLC)?
**A.** < 10 nM

**Q.** And the TGI (EKVX NSCLC)?
**A.** < 19 nM

**Q.** What about the GI50 (COLO 205 colon) of the same compound?
**A.** < 10 nM

**Q.** And the TGI (COLO 205 colon)?
**A.** 54 nM

**Q.** What about the GI50 (SR leukemia) of the same compound?
**A.** < 10 nM

**Q.** And the TGI (SR leukemia)?
**A.** < 10 nM

**Q.** What about the GI50 (ACHN renal) of the same compound?
**A.** < 10 nM

**Q.** And the TGI (ACHN renal)?
**A.** < 10 nM

**Q.** And the GI50 (PC-3 prostate)?
**A.** < 10 nM

**Q.** And the TGI (PC-3 prostate)?
**A.** < 13.7 nM

**Q.** What about the GI50 (HL-60(TB) leukemia) of the same compound?
**A.** < 10 nM

**Q.** And the TGI (HL-60(TB) leukemia)?
**A.** < 10 nM
